# Assay results: PubChem BioAssay (NCI)
#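 In this assay, cells in 96-well plates receive the compound at five concentrations for 48 hours. Endpoints are linearly interpolated between the surrounding concentrations. The concentration for 50% growth inhibition is given as GI50. TGI marks complete inhibition of growth.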
# Assays:
# Assay in all cases: inhibition of tumour cell growth, NCI panel, 48 h
# HCT-15 colon = test system: HCT-15 colon
# SF-295 CNS = test system: SF-295 CNS
# MDA-MB-435 = test system: MDA-MB-435
# SK-MEL-2 melanoma = test system: SK-MEL-2 melanoma
# NCI/ADR-RES ovarian = test system: NCI/ADR-RES ovarian
# M14 melanoma = test system: M14 melanoma
# HOP-62 NSCLC = test system: HOP-62 NSCLC
# K-562 leukemia = test system: K-562 leukemia
# IGROV1 ovarian = test system: IGROV1 ovarian
# SR leukemia = test system: SR leukemia
SMILES,GI50 (HCT-15 colon),TGI (HCT-15 colon),GI50 (SF-295 CNS),TGI (SF-295 CNS),GI50 (MDA-MB-435),TGI (MDA-MB-435),GI50 (SK-MEL-2 melanoma),TGI (SK-MEL-2 melanoma),GI50 (NCI/ADR-RES ovarian),TGI (NCI/ADR-RES ovarian),GI50 (M14 melanoma),TGI (M14 melanoma),GI50 (HOP-62 NSCLC),TGI (HOP-62 NSCLC),GI50 (K-562 leukemia),TGI (K-562 leukemia),GI50 (IGROV1 ovarian),TGI (IGROV1 ovarian),GI50 (SR leukemia),TGI (SR leukemia)
N#CC1=C(/N=C/c2ccccc2)Oc2c(ccc3ccccc23)C1c1ccccc1 (stereo not given),494 nM,> 100000 nM,357 nM,> 100000 nM,227 nM,573 nM,1410 nM,> 100000 nM,285 nM,1050 nM,484 nM,> 100000 nM,646 nM,> 100000 nM,358 nM,> 100000 nM,725 nM,> 100000 nM,409 nM,> 100000 nM
CSc1nc2sc3c(c2c(=O)n1-c1ccc(C(C)C)cc1)CCC(=O)C3,2140 nM,4040 nM,2200 nM,4760 nM,1850 nM,3710 nM,2500 nM,5770 nM,2360 nM,5130 nM,2820 nM,7600 nM,2050 nM,4050 nM,3020 nM,9040 nM,2020 nM,4880 nM,2140 nM,6020 nM
O=C(O)CCC(=O)c1ccc2sc3ccccc3c2c1,–,> 100000 nM,–,> 100000 nM,–,> 100000 nM,–,> 100000 nM,–,> 100000 nM,–,> 100000 nM,–,> 100000 nM,–,> 100000 nM,–,> 100000 nM,–,> 100000 nM
CC1(C)CC(=O)C2=C(C1)OC(N)=C(c1nc(-c3ccccc3)cs1)C2c1ccc(Br)cc1 (stereo not given),36.1 µg/mL,> 150 µg/mL,142 µg/mL,> 150 µg/mL,92.6 µg/mL,> 150 µg/mL,79 µg/mL,> 150 µg/mL,106 µg/mL,> 150 µg/mL,103 µg/mL,> 150 µg/mL,54.4 µg/mL,> 150 µg/mL,68.8 µg/mL,> 150 µg/mL,90.9 µg/mL,> 150 µg/mL,112 µg/mL,> 150 µg/mL
COc1cc2c(cc1OCCCCN1CCN(C(=S)SCCC(C#N)(c3ccccc3)c3ccccc3)CC1)N=C[C@@H]1CCCN1C2=O,1410 nM,3900 nM,–,–,1040 nM,2810 nM,1040 nM,2350 nM,3050 nM,> 100000 nM,–,–,719 nM,2400 nM,3290 nM,> 100000 nM,–,–,–,–
C=CCN1CC(=O)N2[C@@H](Cc3ccc(O)cc3F)C(=O)N(Cc3cccc(N4CC(N5CCN(CC)CC5)C4)n3)C[C@@H]2N1C(=O)NCc1ccccc1,449 nM,> 20900 nM,96.5 nM,1020 nM,102 nM,> 100000 nM,43.5 nM,476 nM,2190 nM,32800 nM,44.5 nM,19600 nM,56.2 nM,> 100000 nM,39.7 nM,> 100000 nM,–,–,29.2 nM,1700 nM
Cn1cc(C2=C(c3cccc(OC[C@@H](O)CO)c3)C(=O)NC2=O)c2ccccc21,> 25000 nM,> 25000 nM,3590 nM,> 25000 nM,> 25000 nM,> 25000 nM,> 25000 nM,> 25000 nM,> 25000 nM,> 25000 nM,> 25000 nM,> 25000 nM,> 25000 nM,> 25000 nM,17300 nM,> 25000 nM,> 25000 nM,> 25000 nM,> 11200 nM,> 25000 nM
